Assay results from PubChem BioAssay (NCI).
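The concentration for 50% growth inhibition is given as GI50. TGI: total growth inhibition.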

What was measured:
Test in all cases: DTP human tumour cell line panel, 384-well format
LOX IMVI melanoma = tested on: LOX IMVI melanoma
NCI-H522 lung = tested on: NCI-H522 lung
A549 NSCLC = tested on: A549 NSCLC
OVCAR-5 ovarian = tested on: OVCAR-5 ovarian
MOLT-4 leukemia = tested on: MOLT-4 leukemia
K-562 leukemia = tested on: K-562 leukemia
NCI-H226 lung = tested on: NCI-H226 lung
HS 578T breast = tested on: HS 578T breast
786-0 renal = tested on: 786-0 renal
HOP-62 NSCLC = tested on: HOP-62 NSCLC
MDA-MB-231 breast = tested on: MDA-MB-231 breast
MALME-3M melanoma = tested on: MALME-3M melanoma
NCI-H23 lung = tested on: NCI-H23 lung
SK-MEL-28 melanoma = tested on: SK-MEL-28 melanoma
SR leukemia = tested on: SR leukemia
HT29 colon = tested on: HT29 colon
HOP-92 NSCLC = tested on: HOP-92 NSCLC
HCC-2998 colon = tested on: HCC-2998 colon
PC-3 prostate = tested on: PC-3 prostate
SK-MEL-5 melanoma = tested on: SK-MEL-5 melanoma
M14 melanoma = tested on: M14 melanoma
T-47D breast = tested on: T-47D breast
CAKI-1 renal = tested on: CAKI-1 renal
RXF 393 renal = tested on: RXF 393 renal
EKVX NSCLC = tested on: EKVX NSCLC
RPMI-8226 leukemia = tested on: RPMI-8226 leukemia
TK-10 renal = tested on: TK-10 renal
SW-620 colon = tested on: SW-620 colon
HCT-15 colon = tested on: HCT-15 colon
UACC-62 melanoma = tested on: UACC-62 melanoma
DU-145 prostate = tested on: DU-145 prostate
A498 renal = tested on: A498 renal
MDA-MB-435 melanoma = tested on: MDA-MB-435 melanoma
CCRF-CEM leukemia = tested on: CCRF-CEM leukemia
ACHN renal = tested on: ACHN renal
MCF7 breast = tested on: MCF7 breast
SN12C renal = tested on: SN12C renal
SK-OV-3 ovarian = tested on: SK-OV-3 ovarian
KM12 colon = tested on: KM12 colon
SF-268 CNS = tested on: SF-268 CNS
SNB-75 CNS = tested on: SNB-75 CNS
SNB-19 CNS = tested on: SNB-19 CNS
OVCAR-3 ovarian = tested on: OVCAR-3 ovarian
UACC-257 melanoma = tested on: UACC-257 melanoma
MDA-MB-468 breast = tested on: MDA-MB-468 breast
OVCAR-4 ovarian = tested on: OVCAR-4 ovarian
SF-539 CNS = tested on: SF-539 CNS
COLO 205 colon = tested on: COLO 205 colon
NCI/ADR-RES ovarian = tested on: NCI/ADR-RES ovarian
NCI-H460 NSCLC = tested on: NCI-H460 NSCLC
OVCAR-8 ovarian = tested on: OVCAR-8 ovarian
IGROV1 ovarian = tested on: IGROV1 ovarian
SF-295 CNS = tested on: SF-295 CNS
UO-31 renal = tested on: UO-31 renal
BT-549 breast = tested on: BT-549 breast
NCI-H322M lung = tested on: NCI-H322M lung
HL-60(TB) leukemia = tested on: HL-60(TB) leukemia

Cc1cc2c(C(N)=O)cccc2n1-c1nc2c(c(NCc3ccccc3)n1)CCCN2
GI50 (LOX IMVI melanoma): 101 nM
TGI (LOX IMVI melanoma): 220 nM
GI50 (NCI-H522 lung): 125 nM
TGI (NCI-H522 lung): 252 nM
GI50 (A549 NSCLC): 182 nM
TGI (A549 NSCLC): 339 nM
GI50 (OVCAR-5 ovarian): 183 nM
TGI (OVCAR-5 ovarian): 326 nM
GI50 (MOLT-4 leukemia): 150 nM
TGI (MOLT-4 leukemia): 284 nM
GI50 (K-562 leukemia): 134 nM
TGI (K-562 leukemia): 269 nM
GI50 (NCI-H226 lung): 102 nM
TGI (NCI-H226 lung): 220 nM
GI50 (HS 578T breast): 78.8 nM
TGI (HS 578T breast): 204 nM
GI50 ([…]-0 renal): 173 nM
TGI (786-0 renal): 314 nM
GI50 (HOP-62 NSCLC): 167 nM
TGI (HOP-62 NSCLC): 305 nM
GI50 (MDA-MB-231 breast): 181 nM
TGI (MDA-MB-231 breast): 323 nM
GI50 (MALME-3M melanoma): 151 nM
TGI (MALME-3M melanoma): 284 nM
GI50 (NCI-H23 lung): 134 nM
TGI (NCI-H23 lung): 263 nM
GI50 (SK-MEL-28 melanoma): 177 nM
TGI (SK-MEL-28 melanoma): 318 nM
GI50 (SR leukemia): 115 nM
TGI (SR leukemia): 238 nM
GI50 (HT29 colon): 168 nM
TGI (HT29 colon): 310 nM
GI50 (HOP-92 NSCLC): 154 nM
TGI (HOP-92 NSCLC): 290 nM
GI50 (HCC-2998 colon): 166 nM
TGI (HCC-2998 colon): 305 nM
GI50 (PC-3 prostate): 188 nM
TGI (PC-3 prostate): 331 nM
GI50 (SK-MEL-5 melanoma): 34.9 nM
TGI (SK-MEL-5 melanoma): 106 nM
GI50 (M14 melanoma): 170 nM
TGI (M14 melanoma): 309 nM
GI50 (T-47D breast): 162 nM
TGI (T-47D breast): 299 nM
GI50 (CAKI-1 renal): 170 nM
TGI (CAKI-1 renal): 317 nM
GI50 (RXF 393 renal): 78.5 nM
TGI (RXF 393 renal): 206 nM
GI50 (EKVX NSCLC): 162 nM
TGI (EKVX NSCLC): 303 nM
GI50 (RPMI-8226 leukemia): 20.8 nM
TGI (RPMI-8226 leukemia): 41.5 nM
GI50 (TK-10 renal): 179 nM
TGI (TK-10 renal): 362 nM
GI50 (SW-620 colon): 176 nM
TGI (SW-620 colon): 316 nM
GI50 (HCT-15 colon): 155 nM
TGI (HCT-15 colon): 295 nM
GI50 (UACC-62 melanoma): 129 nM
TGI (UACC-62 melanoma): 258 nM
GI50 (DU-145 prostate): 195 nM
TGI (DU-145 prostate): 351 nM
GI50 (A498 renal): 162 nM
TGI (A498 renal): 303 nM
GI50 (MDA-MB-435 melanoma): 178 nM
TGI (MDA-MB-435 melanoma): 320 nM
GI50 (CCRF-CEM leukemia): 162 nM
TGI (CCRF-CEM leukemia): 299 nM
GI50 (ACHN renal): 157 nM
TGI (ACHN renal): 397 nM
GI50 (MCF7 breast): 142 nM
TGI (MCF7 breast): 343 nM
GI50 (SN12C renal): 175 nM
TGI (SN12C renal): 315 nM
GI50 (SK-OV-3 ovarian): 246 nM
TGI (SK-OV-3 ovarian): 497 nM
GI50 (KM12 colon): 168 nM
TGI (KM12 colon): 310 nM
GI50 (SF-268 CNS): 174 nM
TGI (SF-268 CNS): 313 nM
GI50 (SNB-75 CNS): 194 nM
TGI (SNB-75 CNS): 338 nM
GI50 (SNB-19 CNS): 191 nM
TGI (SNB-19 CNS): 336 nM
GI50 (OVCAR-3 ovarian): 138 nM
TGI (OVCAR-3 ovarian): 270 nM
GI50 (UACC-257 melanoma): 173 nM
TGI (UACC-257 melanoma): 313 nM
GI50 (MDA-MB-468 breast): 223 nM
TGI (MDA-MB-468 breast): 369 nM
GI50 (OVCAR-4 ovarian): 184 nM
TGI (OVCAR-4 ovarian): 325 nM
GI50 (SF-539 CNS): 167 nM
TGI (SF-539 CNS): 305 nM
GI50 (COLO 205 colon): 193 nM
TGI (COLO 205 colon): 339 nM
GI50 (NCI/ADR-RES ovarian): 182 nM
TGI (NCI/ADR-RES ovarian): 323 nM
GI50 (NCI-H460 NSCLC): 177 nM
TGI (NCI-H460 NSCLC): 324 nM
GI50 (OVCAR-8 ovarian): 159 nM
TGI (OVCAR-8 ovarian): 296 nM
GI50 (IGROV1 ovarian): 168 nM
TGI (IGROV1 ovarian): 315 nM
GI50 (SF-295 CNS): 154 nM
TGI (SF-295 CNS): 290 nM
GI50 (UO-31 renal): 171 nM
TGI (UO-31 renal): 318 nM
GI50 (BT-549 breast): 193 nM
TGI (BT-549 breast): 342 nM
GI50 (NCI-H322M lung): 200 nM
TGI (NCI-H322M lung): 374 nM
GI50 (HL-60(TB) leukemia): 162 nM
TGI (HL-60(TB) leukemia): 300 nM
